Results: US20230416314A1, “MODIFIED HIGH MOLECULAR WEIGHT GLUTENIN SUBUNIT AND USES THEREOF” (Ukko Inc., priority 2020, published 2023)
Where two headings read alike, the source gives them in different places. Residues, ends and D or L forms follow the SMILES beside them. No end group written: not given here.

B1: modified 15-mer peptide … (SEQ ID NO: 175) (peptide)
peptide: QGQEGHGPASPPQSG-OH
B2: modified 15-mer peptide … (SEQ ID NO: 173) (peptide)
peptide: QGQHGYDPTSLEQSG-OH
B3: modified 15-mer peptide … (SEQ ID NO: 177) (peptide)
peptide: QGQEGYGPTSGEQSG-OH
B4: modified 15-mer peptide … (SEQ ID NO: 179) (peptide)
peptide: QGQSGYYPTSPTQSG-OH
B5: modified 15-mer peptide … (SEQ ID NO: 143) (peptide)
peptide: QGQKGYYPTSPHQSG-OH
B6: modified 15-mer peptide … (SEQ ID NO: 178) (peptide)
peptide: QGQPGYYPTSPHQSG-OH

Experiments:
HLA-DQ8 = HLA-DQ8 (Homo sapiens, UniProt P01909+P01920, A209T/A45G/C70Q/D89A/DUP78-78/E183D/E77G/F237L/G63E/H199R/I129T/K197E/L178F/L74F/L98V/Q57E/Q76R/S185I/S97I/T217I/T49S/V73L/Y58L); assay: MHC II/peptide competition binding assay, HLA-DQ8
Procedure: (§1) One skilled in the art would appreciate that the 15-mers used included shorter de-epitoped high molecular weight glutenin peptide sequences (mutated repeating antigenic units), as described throughout. For example, Table 2 provides a listing of 15-mers and the shorter mutated repeating antigenic units present therein. […] MHC II molecules were purified by affinity chromatography, and peptides were radiolabeled using the chloramine T method. After an incubation period, the bound and unbound radiolabeled species were separated, and their relative amounts were determined by either size-exclusion gel-filtration chromatography or monoclonal antibody capture of MHC. The percent of bound radioactivity was then determined.

HLA-DQ2.5 [1] = molecular target: HLA-DQ2.5 (Homo sapiens, UniProt P01909+P01920, A45G/A70V/D89A/E106A/E77G/E98D/H199R/L107V/N214S/P84L/P87L/T103K/T109R/T172A/T60S/V78E/V99I/Y58L/Y62S/Y69I/Y79F); assay: MHC II/peptide competition binding assay, HLA-DQ2.5
Procedure: as §1

HLA-DQ7.5 = HLA-DQ7.5 (Homo sapiens, UniProt P01909+P01920); assay: MHC II/peptide competition binding assay, HLA-DQ7.5
Procedure: The peptides were synthesized as purified material on the 2 mg scale with free acid C-termini (A&A labs, USA). One skilled in the art would appreciate that the 15-mers used included shorter de-epitoped high molecular weight glutenin peptide sequences (mutated repeating antigenic units), as described throughout. For example, Table 2 provides a listing of 15-mers and the shorter mutated repeating antigenic units present therein.
Briefly, competition assays using different concentrations of wild-type (WT) and modified glutenin peptides were conducted by diluting the peptides in NP40 buffer, and incubation for 2-4 days with purified MHC II and a radiolabeled known MHC binding peptide (peptide probe). MHC II molecules were purified by affinity chromatography, and peptides were radiolabeled using the chloramine T method. After an incubation period, the bound and unbound radiolabeled species were separated, and their relative amounts were determined by either size-exclusion gel-filtration chromatography or monoclonal antibody capture of MHC. The percent of bound radioactivity was then determined.

HLA-DQ2.2 = HLA-DQ2.2 (Homo sapiens, UniProt P01909+P01920, A45G/A70V/C70K/D167G/D89A/E106A/E183D/E77G/E98D/F237L/F77L/G63E/H199R/I129T/K197E/L107V/L178F/L74F/N214S/P84L/P87L/Q57E/Q76R/R75H/S185I/S97I/T103K/T109R/T172A/T60S/V73L/V78E/V99I/Y48F/Y58L/Y62S/Y69I/Y79F); assay: MHC II/peptide competition binding assay, HLA-DQ2.2
Procedure: as §1

HLA-DQ2.5 [2] = assay: MHC II competition binding assay (purified MHC II, radiolabeled probe peptide as competitor)
[3] = Table 3, 15-mer peptides, >40000 signifies binding is undetectable by assay

Row | Molecule | IC50 (HLA-DQ8) | IC50 (HLA-DQ2.5 [1]) | IC50 (HLA-DQ2.5 [2]) | other results
1 | C[C@@H](O)[C@H](NC(=O)[C@@H]1CCCN1C(=O)[C@H](Cc1ccc(O)cc1)NC(=O)[C@H](Cc1ccc(O)cc1)NC(=O)CNC(=O)[C@H](CCC(N)=O)NC(=O)[C@H](CCC(N)=O)NC(=O)CNC(=O)[C@@H](N)CCC(N)=O)C(=O)N[C@@H](CO)C(=O)N1CCC[C@H]1C(=O)N[C@@H](CCC(N)=O)C(=O)N[C@@H](CCC(N)=O)C(=O)N[C@@H](CO)C(=O)NCC(=O)O [P1a, reference compound] (H-QGQQGYYPTSPQQSG-OH; N-terminus assumed) | – | – | – | IC50 (HLA-DQ8; [3]): 14.2 µM; IC50 (HLA-DQ2.5 [1]; [3]): 29.8 µM
2 | C[C@@H](O)[C@H](NC(=O)[C@@H]1CCCN1C(=O)CNC(=O)[C@H](Cc1ccc(O)cc1)NC(=O)CNC(=O)[C@H](CCC(=O)O)NC(=O)[C@H](CCC(N)=O)NC(=O)CNC(=O)[C@@H](N)CCC(N)=O)C(=O)N[C@@H](CO)C(=O)NCC(=O)N[C@@H](CCC(=O)O)C(=O)N[C@@H](CCC(N)=O)C(=O)N[C@@H](CO)C(=O)NCC(=O)O [SEQ ID NO: 177] (H-QGQEGYGPTSGEQSG-OH; N-terminus assumed) | > 40 µM | 25.3 µM | – | –
3 | CC(C)C[C@H](NC(=O)[C@H](CC(=O)O)NC(=O)[C@H](CCCNC(=N)N)NC(=O)CNC(=O)[C@H](CCC(=O)O)NC(=O)[C@H](CCC(N)=O)NC(=O)CNC(=O)[C@@H](N)CCC(N)=O)C(=O)N[C@H](C(=O)N[C@@H](CO)C(=O)N1CCC[C@H]1C(=O)N[C@@H](CCCCN)C(=O)N[C@@H](CCC(N)=O)C(=O)N[C@@H](CO)C(=O)NCC(=O)O)[C@@H](C)O [SEQ ID NO: 169] (H-QGQEGRDLTSPKQSG-OH) | > 40 µM | > 40 µM | – | IC50 (HLA-DQ7.5): > 40 µM; IC50 (HLA-DQ2.2): > 40 µM
4 | C[C@@H](O)[C@H](NC(=O)[C@@H]1CCCN1C(=O)[C@H](Cc1ccc(O)cc1)NC(=O)[C@H](Cc1ccc(O)cc1)NC(=O)CNC(=O)[C@H](CCC(=O)O)NC(=O)[C@H](CCC(N)=O)NC(=O)CNC(=O)[C@@H](N)CCC(N)=O)C(=O)N[C@@H](CO)C(=O)N1CCC[C@H]1C(=O)N[C@@H](CCC(=O)O)C(=O)N[C@@H](CCC(N)=O)C(=O)N[C@@H](CO)C(=O)NCC(=O)O [P1b, reference compound] (H-QGQEGYYPTSPEQSG-OH; N-terminus assumed) | – | – | – | IC50 (HLA-DQ8; [3]): 3.76 µM; IC50 (HLA-DQ2.5 [1]; [3]): 3.29 µM
5 | CC(C)C[C@H](NC(=O)[C@H](CO)NC(=O)[C@@H](NC(=O)[C@@H]1CCCN1C(=O)[C@H](CC(=O)O)NC(=O)[C@H](Cc1ccc(O)cc1)NC(=O)CNC(=O)[C@H](Cc1c[nH]cn1)NC(=O)[C@H](CCC(N)=O)NC(=O)CNC(=O)[C@@H](N)CCC(N)=O)[C@@H](C)O)C(=O)N[C@@H](CCC(=O)O)C(=O)N[C@@H](CCC(N)=O)C(=O)N[C@@H](CO)C(=O)NCC(=O)O [SEQ ID NO: 173] (H-QGQHGYDPTSLEQSG-OH; N-terminus assumed) | > 40 µM | 15.9 µM | – | –
6 | C[C@@H](O)[C@H](NC(=O)[C@@H]1CCCN1C(=O)[C@H](CC(=O)O)NC(=O)[C@H](CC(N)=O)NC(=O)CNC(=O)[C@H](CCC(=O)O)NC(=O)[C@H](CCC(N)=O)NC(=O)CNC(=O)[C@@H](N)CCC(N)=O)C(=O)NCC(=O)N1CCC[C@H]1C(=O)N[C@@H](CCC(=O)O)C(=O)N[C@@H](CCC(N)=O)C(=O)N[C@@H](CO)C(=O)NCC(=O)O [P1g] (H-QGQEGNDPTGPEQSG-OH) | – | – | – | IC50 (HLA-DQ7.5; [3]): > 40 µM; IC50 (HLA-DQ2.2; [3]): > 40 µM; IC50 (HLA-DQ8; [3]): > 40 µM; IC50 (HLA-DQ2.5 [1]; [3]): > 40 µM
7 | NC(=O)CC[C@H](NC(=O)CNC(=O)[C@@H](N)CCC(N)=O)C(=O)N[C@@H](CCC(=O)O)C(=O)N1CCC[C@H]1C(=O)N[C@@H](Cc1ccc(O)cc1)C(=O)NCC(=O)N1CCC[C@H]1C(=O)N[C@@H](CO)C(=O)N[C@@H](CO)C(=O)N1CCC[C@H]1C(=O)N[C@@H](CCC(=O)O)C(=O)N[C@@H](CCC(N)=O)C(=O)N[C@@H](CO)C(=O)NCC(=O)O [SEQ ID NO: 176] (H-QGQEPYGPSSPEQSG-OH) | – | – | – | IC50 (HLA-DQ7.5): 28.6 µM
8 | C[C@H](NC(=O)[C@@H]1CCCN1C(=O)CNC(=O)[C@H](Cc1c[nH]cn1)NC(=O)CNC(=O)[C@H](CCC(=O)O)NC(=O)[C@H](CCC(N)=O)NC(=O)CNC(=O)[C@@H](N)CCC(N)=O)C(=O)N[C@@H](CO)C(=O)N1CCC[C@H]1C(=O)N[C@@H](CCCCN)C(=O)N[C@@H](CCC(N)=O)C(=O)N[C@@H](CO)C(=O)NCC(=O)O [SEQ ID NO: 174] (H-QGQEGHGPASPKQSG-OH) | > 40 µM | > 40 µM | – | IC50 (HLA-DQ7.5): 16.4 µM; IC50 (HLA-DQ2.2): > 40 µM
9 | C[C@H](NC(=O)CNC(=O)[C@@H](N)CCC(N)=O)C(=O)N[C@@H](C)C(=O)NCC(=O)N[C@@H](Cc1ccc(O)cc1)C(=O)N[C@@H](Cc1ccc(O)cc1)C(=O)N1CCC[C@H]1C(=O)N[C@H](C(=O)N[C@@H](CO)C(=O)N1CCC[C@H]1C(=O)N[C@@H](CCCNC(=N)N)C(=O)N[C@@H](CCC(N)=O)C(=O)N[C@@H](CO)C(=O)NCC(=O)O)[C@@H](C)O [P1c] (H-QGAAGYYPTSPRQSG-OH) | – | – | – | IC50 (HLA-DQ7.5; [3]): 19.9 µM; IC50 (HLA-DQ8; [3]): > 40 µM; IC50 (HLA-DQ2.5 [1]; [3]): > 40 µM
10 | C[C@@H](O)[C@H](NC(=O)[C@@H]1CCCN1C(=O)[C@H](Cc1ccc(O)cc1)NC(=O)[C@H](Cc1ccc(O)cc1)NC(=O)CNC(=O)[C@@H]1CCCN1C(=O)[C@H](CCC(N)=O)NC(=O)CNC(=O)[C@@H](N)CCC(N)=O)C(=O)N[C@@H](CO)C(=O)N1CCC[C@H]1C(=O)N[C@@H](Cc1c[nH]cn1)C(=O)N[C@@H](CCC(N)=O)C(=O)N[C@@H](CO)C(=O)NCC(=O)O [SEQ ID NO: 178] (H-QGQPGYYPTSPHQSG-OH; N-terminus assumed) | > 40 µM | 29.4 µM | – | –
11 | C[C@@H](O)[C@H](NC(=O)[C@@H]1CCCN1C(=O)[C@H](Cc1ccc(O)cc1)NC(=O)[C@H](Cc1ccc(O)cc1)NC(=O)CNC(=O)[C@H](CO)NC(=O)[C@H](CCC(N)=O)NC(=O)CNC(=O)[C@@H](N)CCC(N)=O)C(=O)N[C@@H](CO)C(=O)N1CCC[C@H]1C(=O)N[C@H](C(=O)N[C@@H](CCC(N)=O)C(=O)N[C@@H](CO)C(=O)NCC(=O)O)[C@@H](C)O [SEQ ID NO: 179] (H-QGQSGYYPTSPTQSG-OH; N-terminus assumed) | > 40 µM | 29.7 µM | – | –
12 | C[C@@H](O)[C@H](NC(=O)[C@@H]1CCCN1C(=O)[C@H](Cc1ccc(O)cc1)NC(=O)[C@H](Cc1ccc(O)cc1)NC(=O)[C@H](CCCNC(=N)N)NC(=O)[C@@H]1CCCN1C(=O)[C@H](CCC(N)=O)NC(=O)CNC(=O)[C@@H](N)CCC(N)=O)C(=O)N[C@@H](CO)C(=O)N1CCC[C@H]1C(=O)N[C@@H](CCCNC(=N)N)C(=O)N[C@@H](CCC(N)=O)C(=O)N[C@@H](CO)C(=O)NCC(=O)O [P1e] (H-QGQPRYYPTSPRQSG-OH) | – | – | – | IC50 (HLA-DQ7.5; [3]): 19.4 µM; IC50 (HLA-DQ8; [3]): 32.5 µM; IC50 (HLA-DQ2.5 [1]; [3]): 33.2 µM
13 | C[C@H](NC(=O)[C@@H]1CCCN1C(=O)CNC(=O)[C@H](Cc1c[nH]cn1)NC(=O)CNC(=O)[C@H](CCC(=O)O)NC(=O)[C@H](CCC(N)=O)NC(=O)CNC(=O)[C@@H](N)CCC(N)=O)C(=O)N[C@@H](CO)C(=O)N1CCC[C@H]1C(=O)N1CCC[C@H]1C(=O)N[C@@H](CCC(N)=O)C(=O)N[C@@H](CO)C(=O)NCC(=O)O [SEQ ID NO: 175] (H-QGQEGHGPASPPQSG-OH; N-terminus assumed) | > 40 µM | 22.1 µM | – | –
14 | C[C@H](NC(=O)[C@@H]1CCCN1C(=O)CNC(=O)[C@H](CCCNC(=N)N)NC(=O)CNC(=O)[C@H](CCC(=O)O)NC(=O)[C@H](CCC(N)=O)NC(=O)CNC(=O)[C@@H](N)CCC(N)=O)C(=O)N[C@@H](CO)C(=O)N1CCC[C@H]1C(=O)N[C@@H](CCCNC(=N)N)C(=O)N[C@@H](CCC(N)=O)C(=O)N[C@@H](CO)C(=O)NCC(=O)O [SEQ ID NO: 145] (H-QGQEGRGPASPRQSG-OH) | – | – | – | IC50 (HLA-DQ7.5): > 40 µM
15 | B1 | – | – | 22.1 µM | –
16 | B2 | – | – | 15.9 µM | –
17 | B3 | – | – | 25.3 µM | –
18 | B4 | – | – | 29.7 µM | –
19 | B5 | – | – | 34.4 µM | –
20 | B6 | – | – | 29.4 µM | –
